From patent US10053431B2, “Tetrahydro-benzodiazepinones” (priority 2013, dated 2018)
Structures can show the parent of a compound that is named as a salt. Where two headings read alike, the source gives them in different places.

How the values were obtained:
BIR3 domain of XIAP = BIR3 domain of XIAP (Homo sapiens (Human), UniProt P98170); assay: TR-FRET assay for BIR3 (inhibition of binding of XIAP BIR3 domain to SMAC-derived Peptide A); settings: 6x His-tagged BIR3 domain (aa 241-356 of XIAP) 10 nM, Peptide A 20 nM, TR-FRET
Sequence of BIR3 domain of XIAP (P98170 241-356 with tags or gaps limits assumed): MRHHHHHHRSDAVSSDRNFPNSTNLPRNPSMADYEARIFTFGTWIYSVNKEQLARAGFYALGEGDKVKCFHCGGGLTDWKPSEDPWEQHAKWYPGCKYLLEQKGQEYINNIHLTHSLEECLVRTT

BIR2 domain of XIAP = BIR2 domain of XIAP (Homo sapiens (Human), UniProt P98170, C202A/C213G); assay: TR-FRET assay for BIR2 (inhibition of binding of XIAP BIR2 domain to SMAC-derived Peptide A)
Sequence of BIR2 domain of XIAP (P98170 124-240 with tags or gaps C202A/C213G limits assumed): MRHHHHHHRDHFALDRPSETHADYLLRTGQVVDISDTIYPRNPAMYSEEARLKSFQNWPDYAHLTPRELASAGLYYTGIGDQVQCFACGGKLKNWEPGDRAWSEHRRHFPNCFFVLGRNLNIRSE

[1] = 6x His-tagged BIR2 domain (aa 124-240 of XIAP) 10 nM, Peptide A 20 nM, TR-FRET, read-out: IC50 BIR2

Row | Compound | IC50 (BIR3 domain of XIAP) [nM] | IC50 (BIR2 domain of XIAP; [1]) [nM] | IC50 (BIR2 domain of XIAP; IC50 BIR2) [nM]
1 | CN[C@@H](C)C(=O)N[C@H]1CN(C(=O)c2ccccc2C(C)=O)c2ccccc2N(Cc2c(C)ccc3ccccc23)C1=O [Example 101, (S)—N—[(S)-5-(2-Acetyl-benzoyl)-1-(2-methyl-naphthalen-1-ylmethyl)-2-oxo-2,3,4,5-tetrahydro-1H-benzo[b][1,4]diazepin-3-yl]-2-methylamino-propionamide] | 53400 | 36 | 
2 | CN[C@@H](C)C(=O)N[C@H]1CN(C(=O)c2ccc(C(C)=O)cc2)c2ccccc2N(CC(=O)Nc2cccc3ccccc23)C1=O [Example 105, (2S)-N-[(3S)-1-(4-acetylbenzoyl)-5-[2-(naphthalen-1-ylamino)-2-oxoethyl]-4-oxo-2,3-dihydro-1,5-benzodiazepin-3-yl]-2-(methylamino)propanamide;2,2,2-trifluoroacetic acid] | 46100 | 503 | 
3 | CN[C@@H](C)C(=O)N[C@H]1CN2C(=O)CNC(=O)c3ccc4c(c(OC)ccc4c3)CN(C1=O)c1ccccc12 [Example 108, Cyclic-5-[(S)-5-(3-Amino-acetyl)-3-((S)-2-methylamino-propionylamino)-2-oxo-2,3,4,5-tetrahydro-benzo[b][1,4]diazepin-1-ylmethyl]-6-methoxy-naphthalene-2-carboxylic amide hydrochloride] | > 54800 | 17.2 | 
4 | CN[C@@H](C)C(=O)N[C@H]1CN(C(=O)c2ccc(C(C)=O)cc2)c2ccccc2N(CC(=O)Nc2nc3ccccc3s2)C1=O [Example 109, (2S)-N-[(3S)-1-(4-acetylbenzoyl)-5-[2-(1,3-benzothiazol-2-ylamino)-2-oxoethyl]-4-oxo-2,3-dihydro-1,5-benzodiazepin-3-yl]-2-(methylamino)propanamide;2,2,2-trifluoroacctic acid] | 42300 | 121 | 
5 | COc1ccc2ccccc2c1CN1C(=O)C(NC(=O)[C@H](C)N)C(=O)N(CC23CC4CC(CC(C4)C2)C3)c2ccccc21 (stereo partly drawn) [Example 111, (2S)-N-[5-(1-adamantylmethyl)-1-[(2-methoxynaphthalen-1-yl)methyl]-2,4-dioxo-1,5-benzodiazepin-3-yl]-2-aminopropanamide] | > 54800 | 295 | 
6 | CC[C@H](NC)C(=O)NC1C(=O)N(Cc2c(OC)ccc3ccccc23)c2ccccc2N(CC23CC4CC(CC(C4)C2)C3)C1=O (stereo partly drawn) [Example 113, (2S)-N-[5-(1-adamantylmethyl)-1-[(2-methoxynaphthalen-1-yl)methyl]-2,4-dioxo-1,5-benzodiazepin-3-yl]-2-(methylamino)butanamide] | > 54800 | 324 | 
7 | CC[C@H](NC)C(=O)NC1C(=O)N(C)c2ccccc2N(Cc2c(C)ccc3ccccc23)C1=O (stereo partly drawn) [Example 114, (2S)-N-(1-methyl-5-((2-methylnaphthalen-1-yl)methyl)-2,4-dioxo-2,3,4,5-tetrahydro-1H-benzo[b][1,4]diazepin-3-yl)-2-(methylamino)butanamide] | > 54800 | 530 | 
8 | CC[C@H](NC)C(=O)NC1C(=O)N(Cc2c(C)ccc3ccccc23)c2ccccc2N(c2ccccc2)C1=O (stereo partly drawn) [Example 115, (2S)-2-(methylamino)-N-(1-((2-methylnaphthalen-1-yl)methyl)-2,4-dioxo-5-phenyl-2,3,4,5-tetrahydro-1H-benzo[b][1,4]diazcpin-3-yl)butanamide] | > 54800 |  | 68.7
9 | CN[C@@H](C)C(=O)NC1C(=O)N(Cc2c(C)ccc3ccccc23)c2ccccc2N(c2ccccc2)C1=O (stereo partly drawn) [Example 116, (2S)-2-(methylamino)-N-(1-((2-methylnaphthalen-1-yl)methyl)-2,4-dioxo-5-phenyl-2,3,4,5-tetrahydro-1H-benzo[b][1,4]diazepin-3-yl)propanamide] | > 54800 |  | 39.8
10 | CN[C@@H](C)C(=O)N[C@H]1CN(C(=O)c2ccc(C(C)=O)cc2)c2ccccc2N(Cc2nn(-c3ccccc3C#N)c3ccccc23)C1=O [Example 120, (S)-N-((S)-5-(4-acetylbenzoyl)-1-((1-(2-cyanophenyl)-1H-indazol-3-yl)methyl)-2-oxo-2,3,4,5-tetrahydro-1H-benzo[b][1,4]diazepin-3-yl)-2-(methylamino)propanamide 2,2,2-trifluoroacetate] | > 54800 | 6.28 | 
11 | CN[C@@H](C)C(=O)N[C@H]1CN(C(=O)c2ccc(N)cc2)c2cc(Cl)ccc2N(Cc2c(C)ccc3ccccc23)C1=O [Example 121, (S)-N-((S)-5-(4-aminobenzoyl)-7-chloro-1-((2-methylnaphthalen-1-yl)methyl)-2-oxo-2,3,4,5-tetrahydro-1H-benzo[b][1,4]diazepin-3-yl)-2-(methylamino)propanamide hydrochloride] | 46400 | 14.8 | 
12 | CN[C@@H](C)C(=O)N[C@H]1CN(C(=O)c2ccc(N)cc2)c2cc(Cl)ccc2N(Cc2c(OC)ccc3c(Br)cccc23)C1=O [Example 123, (S)-N-((S)-5-(4-aminobenzoyl)-1-((5-bromo-2-methoxynaphthalen-1-yl)methyl)-7-chloro-2-oxo-2,3,4,5-tetrahydro-1H-benzo[b][1,4]diazepin-3-yl)-2-(methylamino)propanamide hydrochloride] | 18700 | 6.71 | 
13 | CN[C@@H](C)C(=O)N[C@H]1CN(C(=O)c2ccc(C(C)=O)cc2)c2cc(Cl)ccc2N(Cc2c(OC)ccc3c(Br)cccc23)C1=O [Example 125, (S)-N-((S)-5-(4-acetylbenzoyl)-1-((5-bromo-2-methoxynaphthalen-1-yl)methyl)-7-chloro-2-oxo-2,3,4,5-tetrahydro-1H-benzo[b][1,4]diazepin-3-yl)-2-(methylamino)propanamide hydrochloride] | 25600 | 7.92 | 
14 | CN[C@@H](C)C(=O)N[C@H]1CN(C(=O)c2ccc(F)cc2)c2cc(Cl)ccc2N(Cc2c(OC)ccc3c(Br)cccc23)C1=O [Example 126, (S)-N-((S)-1-((5-bromo-2-methoxynaphthalen-1-yl)methyl)-7-chloro-5-(4-fluorobenzoyl)-2-oxo-2,3,4,5-tetrahydro-1H-benzo[b][1,4]diazepin-3-yl)-2-(methylamino)propanamide hydrochloride] | 21500 | 17.2 | 
15 | CN[C@@H](C)C(=O)NC1C(=O)N(Cc2c(OC)ccc3cc(Br)ccc23)c2ccccc2N(c2ccccc2)C1=O (stereo partly drawn) [Example 128, (2S)-N-(1-((6-bromo-2-methoxynaphthalen-1-yl)methyl)-2,4-dioxo-5-phenyl-2,3,4,5-tetrahydro-1H-benzo[b][1,4]diazepin-3-yl)-2-(methylamino)propanamide] | 44800 |  | 4.99
16 | CN[C@@H](C)C(=O)N[C@H]1CN(C(=O)c2ccc(F)cc2)c2cc(Cl)ccc2N(Cc2c(OC)ccc3cc(Br)ccc23)C1=O [Example 130, (S)-N-((S)-1-((6-bromo-2-methoxynaphthalen-1-yl)methyl)-7-chloro-5-(4-fluorobenzoyl)-2-oxo-2,3,4,5-tetrahydro-1H-benzo[b][1,4]diazepin-3-yl)-2-(methylamino)propanamide hydrochloride] | 16400 | 35.6 | 
17 | CCN[C@@H](CC)C(=O)NC1C(=O)N(Cc2c(OC)ccc3c(Br)cccc23)c2ccccc2N(c2ccccc2)C1=O (stereo partly drawn) [Example 134, (2S)-N-(1-((5-bromo-2-methoxynaphthalen-1-yl)methyl)-2,4-dioxo-5-phenyl-2,3,4,5-tetrahydro-1H-benzo[b][1,4]diazepin-3-yl)-2-(ethylamino)butanamide] | > 54800 |  | 32.5
18 | CN[C@@H](C)C(=O)N[C@H]1CN(C(=O)c2ccc(C#N)cc2)c2cc(Cl)ccc2N(Cc2c(OCC(F)(F)F)ccc3cc(Br)ccc23)C1=O [Example 135, (S)-N-((S)-1-((6-bromo-2-(2,2,2-trifluoroethoxy)naphthalen-1-yl)methyl)-7-chloro-5-(4-cyanobenzoyl)-2-oxo-2,3,4,5-tetrahydro-1H-benzo[b][1,4]diazepin-3-yl)-2-(methylamino)propanamide hydrochloride] | 36200 | 32 | 
19 | CC[C@H](N)C(=O)NC1C(=O)N(Cc2c(OC)ccc3c(Br)cccc23)c2ccccc2N(c2ccccc2)C1=O (stereo partly drawn) [Example 137, (2S)-2-amino-N-(1-((5-bromo-2-methoxynaphthalen-1-yl)methyl)-2,4-dioxo-5-phenyl-2,3,4,5-tetrahydro-1H-benzo[b][1,4]diazepin-3-yl)butanamide] | > 54800 |  | 29.8
20 | CC[C@H](NCCO)C(=O)NC1C(=O)N(Cc2c(OC)ccc3c(Br)cccc23)c2ccccc2N(c2ccccc2)C1=O (stereo partly drawn) [Example 138, (2S)-N-(1-((5-bromo-2-methoxynaphthalen-1-yl)methyl)-2,4-dioxo-5-phenyl-2,3,4,5-tetrahydro-1H-benzo[b][1,4]diazepin-3-yl)-2-(2-hydroxyethylamino)butanamide] | > 54800 | 69.4 | 
21 | CN[C@@H](C)C(=O)N[C@H]1CN(C(=O)c2ccc(C#N)cc2)c2cc(Cl)ccc2N(Cc2c(OC(F)F)ccc3ccccc23)C1=O [Example 139, (S)-N-((S)-7-chloro-5-(4-cyanobenzoyl)-1-((2-(difluoromethoxy)naphthalen-1-yl)methyl)-2-oxo-2,3,4,5-tetrahydro-1H-benzo[b][1,4]diazepin-3-yl)-2-(methylamino)propanamide hydrochloride] | 36900 | 34.7 | 
22 | CN[C@@H](C)C(=O)N[C@H]1CN(C(=O)c2ccc(C#N)cc2)c2cc(C#N)ccc2N(Cc2c(OC)ccc3c(Br)cccc23)C1=O [Example 143, (S)-N-((S)-1-((5-bromo-2-methoxynaphthalen-1-yl)methyl)-7-cyano-5-(4-cyanobenzoyl)-2-oxo-2,3,4,5-tetrahydro-1H-benzo[b][1,4]diazepin-3-yl)-2-(methylamino)propanamide hydrochloride] | 16300 | 5.11 | 
